Test results as given in ChEMBL document CHEMBL5393459, “O-linked thiadiazolyl compounds as dna polymerase theta inhibitors” (2022).

Molecular target: DNA polymerase theta (Homo sapiens, UniProt O75417)
Test: Inhibition of human DNA polymerase theta (1 to 899 residues) ATPase activity using dT50 single strand DNA as substrate by NADH oxidation-coupled enzymatic assay

Sequence of DNA polymerase theta (O75417 whole entry, the tested form may be a part): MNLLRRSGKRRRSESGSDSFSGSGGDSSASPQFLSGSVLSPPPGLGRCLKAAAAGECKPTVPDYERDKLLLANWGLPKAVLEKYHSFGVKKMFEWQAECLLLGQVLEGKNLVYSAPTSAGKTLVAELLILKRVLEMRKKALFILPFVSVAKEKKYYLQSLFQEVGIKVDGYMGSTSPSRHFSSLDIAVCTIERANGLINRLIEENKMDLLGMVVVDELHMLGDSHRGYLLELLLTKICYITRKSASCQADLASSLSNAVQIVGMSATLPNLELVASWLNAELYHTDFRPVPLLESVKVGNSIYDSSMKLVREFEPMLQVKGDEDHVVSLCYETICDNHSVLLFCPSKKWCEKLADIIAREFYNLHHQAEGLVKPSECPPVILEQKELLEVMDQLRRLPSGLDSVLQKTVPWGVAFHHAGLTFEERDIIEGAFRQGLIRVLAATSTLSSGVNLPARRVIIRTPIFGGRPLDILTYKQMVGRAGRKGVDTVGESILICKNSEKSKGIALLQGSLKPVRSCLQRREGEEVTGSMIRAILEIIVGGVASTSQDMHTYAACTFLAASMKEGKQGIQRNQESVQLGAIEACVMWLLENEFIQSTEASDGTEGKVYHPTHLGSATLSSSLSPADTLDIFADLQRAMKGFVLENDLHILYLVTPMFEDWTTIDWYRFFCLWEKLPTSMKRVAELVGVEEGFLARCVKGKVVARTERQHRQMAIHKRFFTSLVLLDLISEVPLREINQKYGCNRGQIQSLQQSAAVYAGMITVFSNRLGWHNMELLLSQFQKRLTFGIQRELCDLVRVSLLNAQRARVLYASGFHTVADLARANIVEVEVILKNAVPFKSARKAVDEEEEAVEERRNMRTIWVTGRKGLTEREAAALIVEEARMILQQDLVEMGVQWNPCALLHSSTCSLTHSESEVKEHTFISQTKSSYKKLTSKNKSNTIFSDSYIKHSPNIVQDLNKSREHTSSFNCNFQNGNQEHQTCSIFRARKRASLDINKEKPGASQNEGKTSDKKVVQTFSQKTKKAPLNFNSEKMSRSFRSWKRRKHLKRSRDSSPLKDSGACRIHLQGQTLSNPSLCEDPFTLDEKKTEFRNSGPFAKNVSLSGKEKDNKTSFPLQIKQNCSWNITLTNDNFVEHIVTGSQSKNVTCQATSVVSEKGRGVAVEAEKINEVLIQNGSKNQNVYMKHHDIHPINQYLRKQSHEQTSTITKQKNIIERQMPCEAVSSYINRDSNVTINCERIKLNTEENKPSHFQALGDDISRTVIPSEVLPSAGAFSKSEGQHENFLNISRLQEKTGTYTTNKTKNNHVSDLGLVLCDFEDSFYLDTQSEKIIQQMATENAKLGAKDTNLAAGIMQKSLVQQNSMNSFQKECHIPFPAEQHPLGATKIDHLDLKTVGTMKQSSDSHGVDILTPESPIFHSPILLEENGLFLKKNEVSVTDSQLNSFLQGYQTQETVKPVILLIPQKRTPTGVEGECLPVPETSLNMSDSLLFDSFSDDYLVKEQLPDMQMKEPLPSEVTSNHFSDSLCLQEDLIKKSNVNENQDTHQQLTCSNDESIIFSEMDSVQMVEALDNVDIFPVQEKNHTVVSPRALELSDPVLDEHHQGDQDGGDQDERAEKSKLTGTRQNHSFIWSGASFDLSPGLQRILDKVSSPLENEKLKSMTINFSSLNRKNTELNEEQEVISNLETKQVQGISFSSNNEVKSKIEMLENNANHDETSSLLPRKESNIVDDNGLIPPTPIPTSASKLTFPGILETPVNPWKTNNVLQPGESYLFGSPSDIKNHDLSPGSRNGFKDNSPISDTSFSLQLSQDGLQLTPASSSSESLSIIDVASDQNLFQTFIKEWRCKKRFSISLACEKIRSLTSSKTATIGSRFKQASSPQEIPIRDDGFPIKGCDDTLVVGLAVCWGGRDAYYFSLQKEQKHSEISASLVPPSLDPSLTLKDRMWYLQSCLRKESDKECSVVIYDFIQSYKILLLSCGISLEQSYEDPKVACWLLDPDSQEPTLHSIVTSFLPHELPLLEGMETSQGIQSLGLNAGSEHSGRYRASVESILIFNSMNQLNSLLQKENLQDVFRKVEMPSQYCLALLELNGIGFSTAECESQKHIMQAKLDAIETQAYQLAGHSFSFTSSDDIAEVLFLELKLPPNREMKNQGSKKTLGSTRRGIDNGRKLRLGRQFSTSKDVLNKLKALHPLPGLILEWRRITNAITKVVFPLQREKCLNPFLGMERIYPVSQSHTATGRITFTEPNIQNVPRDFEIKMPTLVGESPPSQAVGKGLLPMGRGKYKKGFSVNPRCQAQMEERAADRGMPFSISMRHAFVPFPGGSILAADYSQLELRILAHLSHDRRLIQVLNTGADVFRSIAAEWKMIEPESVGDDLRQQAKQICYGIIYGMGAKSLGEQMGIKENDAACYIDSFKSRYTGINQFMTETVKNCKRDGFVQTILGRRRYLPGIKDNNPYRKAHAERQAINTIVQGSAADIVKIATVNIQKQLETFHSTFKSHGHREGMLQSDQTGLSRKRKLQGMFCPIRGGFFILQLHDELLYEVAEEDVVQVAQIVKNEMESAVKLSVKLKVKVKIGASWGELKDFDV

Compound: COc1nnc(NC(=O)c2cnc(C)cc2-c2c(OC)ccc3scnc23)s1
- IC50: > 10 µM
